Test results from PubChem BioAssay AID1963424 (Molecular Pharmacology Branch, DTP, NCI, 2024).
Values joined by “and” are separate entries in the source; they are usually repeats but may differ in a detail not shown here. Identical values can stand only once.

System: 327498-153-R-J2-PDC complex spheroid growth, % test/control
Experiment: Anticancer human tumor 327498-153-R-J2-PDC patient-derived uterine carcinosarcoma cell line growth inhibition [Asc]
Settings: for viability, T/C: stronger effect = lower value
Outline: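 Tumor cells were grown as complex spheroids with human endothelial cells (HUVEC) and human mesenchymal stem cells as stroma. Agents were tested alone and in combination, in half-log steps down from the clinical Cmax, or from 10 microM where Cmax was unknown.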

[1] = curve of first compound, second compound 0.1 µM
[2] = curve of first compound, second compound 0.316 µM
[3] = curve of first compound, second compound 1 µM
[4] = second compound 0.1 µM, first compound 0.00316 µM
[5] = second compound 0.1 µM, first compound 0.01 µM
[6] = second compound 0.1 µM, first compound 0.0316 µM
[7] = second compound 0.1 µM, first compound 0.1 µM
[8] = second compound 0.1 µM, first compound 0.316 µM
[9] = second compound 0.1 µM, first compound 1 µM
[10] = second compound 0.316 µM, first compound 0.00316 µM
[11] = second compound 0.316 µM, first compound 0.01 µM
[12] = second compound 0.316 µM, first compound 0.0316 µM
[13] = second compound 0.316 µM, first compound 0.1 µM
[14] = second compound 0.316 µM, first compound 0.316 µM
[15] = second compound 0.316 µM, first compound 1 µM
[16] = second compound 1 µM, first compound 0.00316 µM
[17] = second compound 1 µM, first compound 0.01 µM
[18] = second compound 1 µM, first compound 0.0316 µM
[19] = second compound 1 µM, first compound 0.1 µM
[20] = second compound 1 µM, first compound 0.316 µM
[21] = second compound 1 µM, first compound 1 µM
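Also: spheroids exposed to compound for 7 days after 3 days of growth.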
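For viability, T/C in this document: 100% = DMSO vehicle control wells.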

NC1CCC(NC2CC2c2ccccc2)CC1 (configuration not stated)
viability, T/C (compound 0.000316 µM): 101% and 116% and 107%
viability, T/C (compound 0.001 µM): 97.7% and 101% and 104%
viability, T/C (compound 0.00316 µM): 104% and 101% and 98.6%
viability, T/C (compound 0.01 µM): 96.9% and 103% and 106%
viability, T/C (compound 0.0316 µM): 96.4% and 105% and 96.6%
viability, T/C (compound 0.1 µM): 89.5% and 98.1% and 92.1%
IC50 (curve of compound): > 100 nM

CCN1CCN(Cc2ccc(Nc3ncc(F)c(-c4cc(F)c5nc(C)n(C(C)C)c5c4)n3)nc2)CC1 + Cc1c(S(C)(=O)=O)c(-c2cc(F)cc(N3CCN(c4ccc(NS(=O)(=O)c5ccc(NC(CCN6CCC(C(=O)OCCCP(=O)(O)O)CC6)CSc6ccccc6)c(S(=O)(=O)C(F)(F)F)c5)cc4)CC3)c2)c(-c2ccc(Cl)cc2)n1C(C)C
IC50 [1]: > 1000 nM
IC50 [2]: > 1000 nM
IC50 [3]: > 1000 nM
IC50 (curve of first compound, second compound 3.16 µM): > 1000 nM
IC50 (curve of first compound, second compound 10 µM): > 1000 nM
viability, T/C [4]: 101%
viability, T/C [5]: 94.9%
viability, T/C [6]: 76.3%
viability, T/C [7]: 64.1%
viability, T/C [8]: 64.5%
viability, T/C [9]: 67.8%
viability, T/C [10]: 94.7%
viability, T/C [11]: 95.2%
viability, T/C [12]: 78.2%
viability, T/C [13]: 63.9%
viability, T/C [14]: 49.7%
viability, T/C [15]: 55.8%
viability, T/C [16]: 95.3%
viability, T/C [17]: 93%
viability, T/C [18]: 85.9%
viability, T/C [19]: 65.7%
viability, T/C [20]: 56.9%
viability, T/C [21]: 57.2%
viability, T/C (second compound 3.16 µM, first compound 0.00316 µM): 105%
viability, T/C (second compound 3.16 µM, first compound 0.01 µM): 94.7%
viability, T/C (second compound 3.16 µM, first compound 0.0316 µM): 72.1%
viability, T/C (second compound 3.16 µM, first compound 0.1 µM): 55.8%
viability, T/C (second compound 3.16 µM, first compound 0.316 µM): 62.3%
viability, T/C (second compound 3.16 µM, first compound 1 µM): 49.5%
viability, T/C (second compound 10 µM, first compound 0.00316 µM): 184%
viability, T/C (second compound 10 µM, first compound 0.01 µM): 172%
viability, T/C (second compound 10 µM, first compound 0.0316 µM): 145%
viability, T/C (second compound 10 µM, first compound 0.1 µM): 105%
viability, T/C (second compound 10 µM, first compound 0.316 µM): 96%
viability, T/C (second compound 10 µM, first compound 1 µM): 79.4%

O=C(c1ccc(F)c(F)c1Nc1ccc(I)cc1F)N1CC(O)([C@@H]2CCCCN2)C1 + CNC(C)C(=O)NC1CN(S(=O)(=O)c2cccc(S(=O)(=O)N3CCC4CCC(C(=O)NC(c5ccccc5)c5ccccc5)N4C(=O)C(NC(=O)C(C)NC)C3)c2)CCC2CCC(C(=O)NC(c3ccccc3)c3ccccc3)N2C1=O
IC50 (curve of first compound, second compound 0.01 µM): 391 nM
IC50 (curve of first compound, second compound 0.0316 µM): 377 nM
IC50 [1]: 377 nM
IC50 [2]: 304 nM
IC50 [3]: 430 nM
viability, T/C (second compound 0.01 µM, first compound 0.00316 µM): 97.4%
viability, T/C (second compound 0.01 µM, first compound 0.01 µM): 91.9%
viability, T/C (second compound 0.01 µM, first compound 0.0316 µM): 81.7%
viability, T/C (second compound 0.01 µM, first compound 0.1 µM): 78.5%
viability, T/C (second compound 0.01 µM, first compound 0.316 µM): 55.7%
viability, T/C (second compound 0.01 µM, first compound 1 µM): 23.5%
viability, T/C (second compound 0.0316 µM, first compound 0.00316 µM): 104%
viability, T/C (second compound 0.0316 µM, first compound 0.01 µM): 98.6%
viability, T/C (second compound 0.0316 µM, first compound 0.0316 µM): 89%
viability, T/C (second compound 0.0316 µM, first compound 0.1 µM): 76.4%
viability, T/C (second compound 0.0316 µM, first compound 0.316 µM): 55.7%
viability, T/C (second compound 0.0316 µM, first compound 1 µM): 22.9%
viability, T/C [4]: 104%
viability, T/C [5]: 88%
viability, T/C [6]: 85.8%
viability, T/C [7]: 76.8%
viability, T/C [8]: 56%
viability, T/C [9]: 21.9%
viability, T/C [10]: 105%
viability, T/C [11]: 102%
viability, T/C [12]: 77.7%
viability, T/C [13]: 75.7%
viability, T/C [14]: 48.2%
viability, T/C [15]: 22.6%
viability, T/C [16]: 104%
viability, T/C [17]: 92.9%
viability, T/C [18]: 92.3%
viability, T/C [19]: 80.9%
viability, T/C [20]: 62.5%
viability, T/C [21]: 20%
